Assay: Dissolving rate and solubility in organic materials versus crystalline form
Conditions: in polymers and lubricants; compared to the prior art crystalline form

bis(2,4-dicumylphenyl)pentaerythritol diphosphite [Example 1]
rate of dissolving in organic materials: faster rate of dissolving
solubility in organic materials: better solubility
